The source of these data is US20260014085A1, “MILK DERIVED EXOSOMES AND USES THEREOF” (VIRGINIA TECH INTELLECTUAL PROPERTIES, INC., priority 2022, published 2026).

Some results are limits rather than exact numbers.

Experiment [1] deals with B5 Clone (High Cx43) MDCK cells. In words: mEV uptake in scratch wound model, B5 Clone (High Cx43) MDCK. In kind it is cell-based, canine. As for the experimental part:
Cells are cultured to confluency, then scratched in low serum conditions (1% NCS), rinsed, and supplied fresh medium with 20 μg/mL CTDR-Tagged mEV's. […] (FIG. 4B) Unwounded Parent (Low Cx43) MDCKs; (FIG. 4C) Wounded Parent (Low Cx43) MDCKs; (FIG. 4D) Unwounded B5 Clone (High Cx43) MDCKs; (FIG. 4E) Wounded B5 Clone (High Cx43) MDCKs. […] (FIG. 4G) Wounded B5 Clone (High Cx43) MDCKs provided mEV's; (FIG. 4H) Wounded B5 Clone (High Cx43) MDCKs provided mEV's and Gap27, a Connexin inhibitor.
FIG. 5A-5C—Milk-Derived Extracellular Vesicle targeting capabilities to high Cx43 expressing B5 Clone MDCKS are completely eliminated via use of exogenous Apyrase. Cells are cultured to confluency, then scratched in low serum conditions (1% NCS), rinsed, and supplied fresh medium with 20 μg/mL CTDR-Tagged mEV's with or without 100 uM Apyrase. (FIG. 5A) Wounded B5 Clone (High Cx43) given CTDR-Tagged mEV's; (FIG. 5B) Wounded B5 Clone (High Cx43) given CTDR tagged mEV's with 100 µM Apyrase.
The associated bar graph for particle count analysis is shown above in FIG. 4A. […] This insinuates that mEV uptake by cells is mediated by Cx43 in both unwounded and wounded situations, with unwounded B5 clone cells experiencing similar uptake levels to that of wounded Parent Lampe cells (FIG. 4A). Applicant then tested for the mechanism of uptake in these cells—B5 clone cells were scratch wounded and given fluorescently tagged mEV's, then some were also provided with Gap27 (FIG. 4F), a known Connexin channel blocker. When co-incubated with Gap27 (D2), mEV uptake was blocked by over 25% (FIG. 4F) when compared to those untreated. […] Another mechanism of uptake of mEV's in a wounded environment that Applicant has discovered is ATP (FIG. 5A-5C).
Small extracellular vesicles known as exosomes (nanovesicles of less than or equal to 150 nm diameter) are secreted by nearly all cell types and are thought to have key assignments in intercellular signaling. Reports that exosomes evade immune detection, show propensity to cross tissue boundaries (e.g., the blood-brain barrier) and can be orally administered has also attracted increasing interest in therapeutic applications, including as drug delivery devices. Applicant recently developed a method for large-scale purification of bovine milk-derived extracellular vesicles (Marsh et al., Nanotheranostics. 2021 Jul. 5; 5(4):488-498. doi: 10.7150/ntno.62213. eCollection 2021). […] Girao and co-workers determined that Connexin 43 (Cx43) is present in exosomes derived from cultured cells expressing Cx43, where this gap junction protein has assignments in cellular uptake of exosomal cargo (Soares et al., Sci Rep. 2015 Aug. 19; 5:13243. doi: 10.1038/srep13243). […]

Experiment [2] has the same test system. Description: Scratch wound closure (migration index), B5 Clone (High Cx43) MDCK. In kind it is cell-based, canine. The settings on record: B5 Clone MDCKs, 100 uM Apyrase. As for the experimental part: FIG. 7A-7L—Milk-Derived Extracellular Vesicles contain endogenous bioactive capabilities in a Scratch-Wounded model of wound healing in Cx43-variable MDCK cells. Cells are cultured to confluency, then scratched in low serum conditions (1% NCS), rinsed, and supplied fresh medium with 20 μg/mL mEV's or 20 uL Vehicle (HEPES buffer). (FIG. 7A) Quantification of wound closure using ImageJ border zone analysis plugin software. Scratches are scanned and imaged at t=0 and scratch size is quantified, then after 8 hours, cells are stopped, fixed and imaged again, then final scratch size is quantified. Migration index is calculated by subtracting the final area from the starting and dividing by the average of vehicle control samples, giving a value of 1.0 for vehicle control. mEV's contain endogenous bioactivity that is Cx43 Dependent, with over 8× healing potential when cells contain enhanced Cx43 levels. […] (FIG. 7G) Quantification of wound closure using ImageJ border zone analysis plugin software. Scratches are scanned and imaged at t=0 and scratch size is quantified, then after 8 hours, cells are stopped, fixed and imaged again, then final scratch size is quantified. […]

On to Apyrase, for which the “mEV expression with added apyrase” value in experiment [1] (wounded B5 Clone (High Cx43) MDCKs, 100 uM Apyrase) is “significant and complete elimination”. Besides, in experiment [1] (wounded B5 Clone cells, co-incubated with 100 uM apyrase), the “reduction in mEV uptake with apyrase” value is given as above 95%. Besides, in experiment [2], the “mEV wound healing capabilities with exogenous Apyrase” value is “heavily reduced”.

Consider “Gap27: a known Connexin channel blocker (TEKTIFIIFML; UniProt P17302 204-214, looked up, fragment)”, for which the “mEV uptake blocked when co-incubated with Gap27” value in experiment [1] (scratch wounded B5 clone cells, compared to untreated) is “over 25%”. In addition, the “mEV expression with added Gap27” value in experiment [1] (wounded B5 Clone (High Cx43) MDCKs) is reported as “statistical drop”.
